According to patent US20100150938A1, “METHODS AND COMPOSITIONS FOR REDUCING INFLAMMATION AND TREATING INFLAMMATORY DISORDERS” (UNIVERSITY OF MASSACHUSETTS, priority 2008, published 2010):
Entries after “also recorded” stand apart in the source; their conditions may differ.

Tests used:
caspase-1 [1] = assay: Caspase-1 cleavage/activation in mouse macrophages (Western blot p10); format: cell-based
Protocol: (§1) Bone marrow derived macrophages were generated as described (Severa, M et al. Journal of Biological Chemistry 281:26188-26195 (2006)). Human PBMCs were isolated by from whole blood of healthy volunteers by density gradient centrifugation. Lysis of red blood cells was performed using red blood cell lysis buffer (Sigma). Experiments in PBMCs and macrophages were carried out at a cell density of 2×10^6 cells/ml. All primary cells and cell lines except THP-1 cells were cultured in DMEM supplemented with L-glutamine, ciprofloxacin (Cellgro, Manassas, Va.) and 10% fetal calf serum (Hyclone, Logan, Utah). THP-1 cells were cultured in RPMI supplemented with 10% fetal calf serum (Hyclone), L-glutamine, sodium pyruvate (Cellgro), and ciprofloxacin. One day prior to stimulation, THP-1 cells were differentiated using 0.5 μM PMA for three hours, washed three times and plated for stimulation. All experiments that were performed for Western blot analysis were carried out in serum free DMEM medium. ATP stimulations were carried out at 5 mM one hour prior to harvesting supernatants.
Cell culture supernatants were precipitated by adding an equal volume of methanol and 0.25 volumes of chloroform, vortexed and centrifuged at 20.000×g for 10 min. The upper phase was discarded and 500 μl of methanol was added to the interphase. This mixture was centrifuged at 20.000×g for 10 min and the protein pellet dried at 55° C., resuspended in Laemmli buffer and boiled at 99° C. for 5 min. Samples were separated by SDS-PAGE (15%) and transferred onto nitrocellulose membranes. As indicated, blots were incubated with rabbit polyclonal antibody to anti murine caspase-1 p10 (sc-514, Santa Cruz Biotechnology, Santa Cruz, Calif.), rabbit polyclonal anti human caspase-1 p10 (sc-515, Santa Cruz Biotechnology), rabbit polyclonal anti human cleaved IL-1β (Asp116) (Cell Signaling, Boston, Mass.) or rabbit polyclonal anti murine cathepsin B (R&D Systems, Minneapolis, Minn.).
Cell culture supernatants were precipitated by adding an equal volume of methanol and 0.25 volumes of chloroform, vortexed and centrifuged at 20,000×g for 10 min. The upper phase was discarded and 500 μl of methanol was added to the interphase. This mixture was centrifuged at 20,000×g for 10 min and the protein pellet dried at 55° C., resuspended in Laemmli buffer and boiled at 99° C. for 5 min Samples were separated by SDS-PAGE (15%) and transferred onto nitrocellulose membranes. Blots were incubated with rabbit polyclonal antibody to anti murine caspase-1 p10 (sc-514, Santa Cruz Biotechnology, Santa Cruz, Calif.).

THP-1 cells = assay: Lysosomal rupturing in THP-1 cells, IL-1β release; format: cell-based, human; conditions: PMA-differentiated THP-1 cells, 4 h
Protocol: Cell culture supernatants were assayed for IL-1β using ELISA kits from BD Biosciences (Franklin Lakes, NJ) according to the manufacturer's instructions. To measure intracellular IL-1β, cells were washed and subjected to three freeze thaw cycles in assay diluent. PMA-differentiated THP-1 cells were incubated with hypertonic DMEM medium containing 10% polyethylene glycol (PEG) 1000, 1.4 M sucrose, 20 mM Hepes (pH 7.2) and 5% FCS for […] at 37° C. Cells were subsequently washed and incubated in hypotonic DMEM medium [DMEM: H2O (3:2)] for 2 min to induce lysosomal rupturing. Cells were then incubated in serum free DMEM for additional 4 hours.

caspase-1 [2] = assay: Caspase-1 activation in microglia (FLICA, confocal microscopy, flow cytometry); format: cell-based, mouse; conditions: immortalized microglia, Aβ 10 μM, revAβ 10 μM, ATP 1 mM, 4 h
Protocol: For assessment of microglia-induced neurotoxicity, CAD mouse neuronal cells^47 were seeded on poly-L-lysine coated glass cover slips and grown in F12/DMEM supplemented with ciprofloxacin (Cellgro, Manassas, Va.) and 10% fetal calf serum (Hyclone, Logan, Utah) for 24 h. Differentiation was induced by withdrawal of serum for 48 h Immortalized microglia from wildtype or caspase-1^−/− mice were added in serum free medium to obtain mixed neuronal/microglial cultures and immediately stimulated. 72 h after stimulation with Aβ or media, cells were fixed, stained for the neuron-specific marker TuJ-1 and microglial marker CD11b, and imaged by confocal microscopy (Leica SP2 AOBS). Caspase-1 activity in microglial cells was assessed using the caspase-1 FLICA™ kit (Immunochemistry Technologies, Bloomington, Minn.) according to the manufacturer's instructions.
For evaluation of lysosomal damage, cells were incubated with LysoTracker green (1:2000) for 30 min and stimulated as described. Lysosomal damage was defined as loss of LysoTracker fluorescence as assessed by flow cytometry. All flow cytometry experiments were performed on an LSRII cytometer (BD Biosciences), data were acquired by DIVA software (BD Biosciences) and analyzed with FlowJo software (Tree Star Inc., Ashland, Oreg.).
IL-1β maturation is controlled by caspase-1 after assembly of the inflammasome, a multi protein complex that activates pro-caspase-1. In order to test whether Aβ activates caspase-1, we measured levels of activated caspase-1 using a fluorescent cell permeable probe (FAM-YVAD-Fmk), which covalently binds only to activated caspase-1 (Fluorescent labeled Inhibitors of Caspases, FLICA)^14. […] Similar results were obtained in primary microglial cultures (FIG. 15c).

ASC = assay: ASC-CFP microglia cell line, ASC clustering; format: cell-based, mouse; conditions: LPS-primed ASC-CFP microglia, 3 h after stimulation
Excerpt: Human ASC was fused to CFP using BgIII/BamHI in pEF-BOS-CFP. Subsequently, ASC-CFP was cloned using XhoI and NotI into a modified form of FUGW (FUGW-XN). FUGW-XN was modified by replacing GFP with a novel cut site that created XhoI and NotI compatible ends upon Esp3I digestion.
Lentivirus was produced in 293T cells transfected with the FUGW based expression vector coding for ASC-CFP, lentiviral packaging plasmid containing gag, pol and rev genes (pCMV-dR8.91) and envelope plasmid (VSV-G) using TransIT-LT1 transfection reagent (Minis Bio, MIR 2300/5/6) as previously described^46. One day after transfection, medium was replaced and after one additional day of culture supernatants containing the lentivirus was removed, filtered and used to infect immortalized microglia cells.
For experiments, ASC-CFP microglial cells were seeded in duplicate into confocal dishes, stimulated as indicated. A647-labeled cholera toxin subunit B (1:1000) was added to stain cellular membranes. Cells were subsequently imaged using confocal microscopy (Leica SP2 AOBS). Cells were fixed and 5 random fields were imaged in duplicate for quantification.
First, we stably transduced microglial cell cultures with a fusion protein of ASC and cyan fluorescent protein (CFP). ASC forms large oligomers upon its activation, leading to visible changes in the cytoplasmic fluorescence pattern of ASC-CFP. […]

human PBMCs = assay: IL-1β release from human PBMCs (ELISA, Western blot); format: cell-based
Protocol: as §1
(§2) Cell culture supernatants were assayed for IL-1β using ELISA kits from BD Biosciences (Franklin Lakes, NJ) according to the manufacturer's instructions. To measure intracellular IL-1β, cells were washed and subjected to three freeze thaw cycles in assay diluent.
Cell culture supernatants were precipitated by adding an equal volume of methanol and 0.25 volumes of chloroform, vortexed and centrifuged at 20.000×g for 10 min. The upper phase was discarded and 500 μl of methanol was added to the interphase. This mixture was centrifuged at 20.000×g for 10 min and the protein pellet dried at 55° C., resuspended in Laemmli buffer and boiled at 99° C. for 5 min. Samples were separated by SDS-PAGE (15%) and transferred onto nitrocellulose membranes. […]

mouse macrophages [3] = assay: IL-1β release from LPS-primed mouse macrophages (bone marrow-derived, B6-MCLs), ELISA; format: cell-based; conditions: LPS-primed B6-MCLs, cytochalasin D 30 min
Protocol: as §1
Immortalized macrophage cell lines were generated using the previously described J2 recombinant retrovirus (carrying v-myc and v-raf/mil oncogenes) (Roberson, S. M. & Walker, W. S. Cellular immunology 116:341-351 (1988)). Briefly, primary bone marrow cells were incubated in L929 conditioned medium for 3-4 days to induce macrophage differentiation. Subsequently, cells were infected with J2 recombinant retrovirus. Cells were maintained in culture for 3-6 months slowly weaning off the percentage of L929 supernatant until cells were growing in the absence of conditioned medium.
Macrophage phenotype was verified by surface marker expression for CD11b and F480 as well as a range of functional parameters, including responsiveness to TLR ligands and bacterial uptake. Macrophage cell lines from wild-type (C57BL6), NALP3- and ASC-deficient mice were generated and are referred to as B6-MCLs, NALP3 -MCLs and ASC-MCLs.
as §2
(§3) Stimulations were carried out in serum free DMEM medium. Microglial cells and macrophages were primed with 100 U/ml IFNγ (Griess assay, TNF ELISA, real-time quantitative PCR) or 100 ng/ml ultrapure LPS (IL-1β ELISA, FLICA, ASC-CFP microglia cell line assay, Western blot) 1-3 h prior to stimulation with Aβ, revAβ, zymosan, ATP or transfection with dAdT.

mouse macrophages [4] = assay: Crystal uptake (phagocytosis) in mouse macrophages, confocal reflection microscopy; format: cell-based; conditions: cytochalasin D 2.5 μM
Excerpt: Confocal reflection microscopy was combined with fluorescence microscopy on a Leica SP2 AOBS confocal laser scanning microscope. Reflection was captured by placing the detector channel directly over the wavelength of the selected laser channel for reflection light capture and the AOBS was set to allow 5-15% of laser light into the collection channel. Fluorescence was simultaneously captured by standard confocal imaging techniques.
To visualize the uptake of crystalline material in living cells, we devised a method to image crystals simultaneously with cellular components stained with fluorescent dyes (FIG. 8b). We used this method to study the uptake of crystals into mouse macrophages. […] The median length of silica Q6 crystals engulfed by phagocytosis was 1.65 μm (FIG. 3c).

mouse microglia [5] = assay: IL-1β release from LPS-primed mouse microglia (ELISA); format: cell-based
Protocol: For primary cultures, bone marrow-derived macrophages and microglia were isolated as described^42,43 and cultured in DMEM supplemented with L-glutamine, ciprofloxacin (Cellgro, Manassas, Va.) and 10% fetal calf serum (Hyclone, Logan, Utah) Immortalized macrophage and microglial cell lines were generated using J2 recombinant retrovirus (carrying v-myc and v-raf oncogenes)^44,45. Briefly, primary bone marrow cells were incubated in L929 conditioned medium for 3-4 days to induce macrophage differentiation. Cells were then infected with J2 recombinant retrovirus and maintained in culture until cells were growing in the absence of conditioned medium. Similarly, primary mixed glial cultures were cultured until fully confluent. After two consecutive infections with J2 retrovirus, cells were maintained in normal medium until growth of microglial cells in colonies was observed. The semi-adherent colonies of microglial cells were washed off and cultured in new flasks. […] Microglial cell lines form wild type (C57/BL6), Caspase-1^−/− and IL-IR^−/− mice as well as macrophage cell lines from wild type (C57BL6), NALP3 -, IPAF- and ASC-deficient mice were generated and used for experiments as indicated.
as §3
(§4) Cell culture supernatants were assayed for IL-1β and TNFα using ELISA kits from R&D Systems (Minneapolis, Minn.) according to the manufacturer's instructions. Nitric oxide was measured by Griess reaction of nitrites accumulated in the supernatants using chemicals from Sigma.

mouse microglia [6] = assay: Nitric oxide production by primed microglia (Griess reaction); format: cell-based; conditions: primed immortalized microglia, 24 h
Protocol: as §3, §4

mouse microglia [7] = assay: TNF-α release from primed microglia (ELISA); format: cell-based; conditions: primed immortalized microglia, 24 h
Protocol: as §3, §4

[8] = human PBMCs pretreated with cytochalasin D
[9] = wild type immortalized microglia

**Q.** With `Nc1ncnc2c1ncn2[C@@H]1O[C@H](COP(=O)(O)OP(=O)(O)OP(=O)(O)O)[C@@H](O)[C@H]1O` [ATP] as the molecule, how does the “caspase-1 cleavage induced by the stimulus” value (caspase-1 [1]; LPS-primed bone marrow-derived macrophages, wild-type) read?
**A.** The value was “induced in a dose dependent way”.

**Q.** And the “caspase-1 cleavage (p10) induced by the stimulus” value (caspase-1 [1]; LPS-primed wild type bone marrow-derived macrophages, Aβ and reverse Aβ 10 μM)?
**A.** The value was “induced caspase-1 cleavage (p10)”.

**Q.** And the “IL-1β release induced by the stimulus” value (THP-1 cells)?
**A.** The value was “increased IL-1β release”.

**Q.** What about the “caspase-1 positive microglial cells after stimulation” value (caspase-1 [2]) of the same molecule?
**A.** Its value is “robust increase”.

**Q.** What about the “formation of fluorescent ASC-CFP clusters” value (ASC) of the same molecule?
**A.** The value was “also observed”.

**Q.** With `C=C1[C@@H](C)[C@H]2[C@H](Cc3ccccc3)NC(=O)[C@]23[C@H](OC(C)=O)/C=C/[C@@](C)(O)C(=O)[C@@H](C)C/C=C/[C@H]3[C@@H]1O` [cytochalasin D] as the molecule, how does the “IL-1β release after treatment with MSU or silica crystals, inhibitor pretreatment” value (human PBMCs; [8]) read?
**A.** The value was “completely abrogated”.

**Q.** And the “IL-1β response to R-848 or ATP, inhibitor pretreatment” value (human PBMCs; [8])?
**A.** Its value is “unaffected”.

**Q.** And the “IL-1β response to ATP, inhibitor present” value (mouse macrophages [3])?
**A.** The value was “unaffected”.

**Q.** What about the “IL-1β release after treatment with MSU or silica crystals, inhibitor present” value (mouse macrophages [3]; MSU 250 μg/ml, silica 500 μg/ml) of the same molecule?
**A.** The value was “abrogated”.

**Q.** What about the “phagocytosis of silica or MSU crystals by treated cells” value (mouse macrophages [4]) of the same molecule?
**A.** Its value is “failed to engulf”.

**Q.** What about the “ATP-induced IL-1β release in presence of cytochalasin D” value (mouse microglia [5]; [9]) of the same molecule?
**A.** The value was “no effect; also recorded: not affected”.

**Q.** And the “Aβ-induced IL-1β release in presence of cytochalasin D” value (mouse microglia [5]; [9])?
**A.** The value was “strongly attenuated; also recorded: dose-dependently inhibited”.

**Q.** How did the “IL-1β response to silica crystal treatment in presence of inhibitor” value (human PBMCs; LPS-primed human PBMCs, silica crystals, z-YVAD, 6 h) turn out when `COC(=O)C[C@H](NC(=O)[C@H](C)NC(=O)[C@@H](NC(=O)[C@H](Cc1ccc(O)cc1)NC(=O)OCc1ccccc1)C(C)C)C(=O)CF` [z-YVAD, z-YVAD-fmk] was run?
**A.** Its value is “almost completely abolished”.

**Q.** And the “ATP-induced IL-1β release in presence of caspase-1 inhibitor” value (mouse microglia [5]; primary microglia)?
**A.** Its value is “also inhibited”.

**Q.** And the “Aβ-induced IL-1β release in presence of caspase-1 inhibitor” value (mouse microglia [5]; primary microglia)?
**A.** The value was “dose-dependently reduced”.

**Q.** What about the “Aβ-induced IL-1β release in presence of caspase-1 inhibitor” value (mouse microglia [5]; wild type immortalized microglial cells, 6 h) of the same molecule?
**A.** The value was “dose-dependent inhibition; also recorded: significant attenuation”.

**Q.** What about the “Aβ-induced NO production, inhibitor present” value (mouse microglia [6]) of the same molecule?
**A.** Its value is “strongly and dose-dependently attenuated; also recorded: strongly inhibited”.

**Q.** What about the “Aβ-induced TNF-α release, inhibitor present” value (mouse microglia [7]) of the same molecule?
**A.** Its value is “attenuated; also recorded: inhibited”.
